Test results as given in patent publication US20240415805A1 (priority 2023, published 2024).
“Also recorded” adds a separate entry of the source.

Legend:
Pg 33277 vesicles = conditions: 30 μM; previously reported; cited from earlier work
HOKs = test: HOK cell viability (Promega CellTiter-Glo); assay type: cell-based, human; conditions: 48 h
Description: Each bar represents the mean±standard deviation of luminescence levels representing relative the number of viable cells. Data are the mean of at least three independent experiments.
To examine potential cytotoxic effects of GM, HOKs were cultured in the presence of a range of GM from 0 to 1,000 nM for 48 h and the number of viable cells in the culture was determined using Promega™ CellTiter-Glo™.

Pg 33277 = test: Antibiotic protection assay: invasion of Pg cells into human primary oral keratinocytes; assay type: cell-based; conditions: Porphyromonas gingivalis, 33277, Keratinocyte, read-out: Pg inhibited from entry into HOKs
Description: Inhibition of Pg cells invasion by GM. The ability of Pg to invade oral epithelial cells was determined using an antibiotic protection assay as described^28. Human primary oral keratinocytes (HOKs, 5×10^4 cells, ScienCell® Research Laboratories) were seeded in a 24-well plate. After incubating with Pg 33277 for 1 h, HOKs were continually cultured for another 4 h in the presence of antibiotics (gentamicin (300 μg/ml) and metronidazole (200 μg/ml)) to eliminate extracellular bacteria. The HOKs were then lysed, and the internalized bacteria were plated on TSB blood agar plates. The plates were incubated anaerobically at 37° C. for 7 days, and CFUs of Pg were enumerated. […] In the presence of 40 nM GM, more than 95% of Pg were inhibited from entry into HOKs. In addition, the role of GM in Pg re-entry was tested. After exposure to Pg cells for 1 h and then antibiotic treatment for 4 h, HOKs were continuously cultured for 24 h in the presence of GM (20 nM), antibiotics, or GM and antibiotics. Intracellular Pg was determined as described^28. As expected, intracellular Pg cells moved in and out of the HOKs.

SMILES | Pg vesicle invasion (Pg 33277 vesicles) | cell viability of HOKs (HOKs; GM 0 to 1,000 nM, as high as luM) | highest concentration without viability effect relative to the concentration that inhibits Pg invasion (HOKs; HOKs) | inhibition at 0.04 µM (Pg 33277) [%]
O=C(N/N=C/c1ccc(O)c(O)c1)c1cc2ccccc2cc1O [dynasore] | inhibited the vesicle invasion |  |  | 
C=C(C)[C@@]12C[C@@H](COC(=O)c3ccccc3)[C@@]34OC5(O[C@@H]1[C@@H]3[C@@H]1O[C@]1(CO)[C@@H](O)[C@@]1(O)[C@H]4[C@H]([C@H](C)[C@@H]1OC(=O)c1ccccc1)[C@H](C)CCCCCC[C@H]5O)O2 [GM, gnidimacrin] |  | does not affect host cell viability; also recorded: no impact | approximately 50 times | > 95
